Laboratory results taken from US20220312767A1, “PYRIDAZINE COMPOUNDS AND HERBICIDES” (Nippon Soda Co., Ltd., priority 2019, published 2022).

Columns and labels:
[1] = tested on: Matricaria chamomilla; experiment: Foliage treatment test (Test Example 1), foliage spray; assay type: in vivo; details: 250 g per hectare, three weeks after, fresh grass mass of aerial part vs untreated
Method: (§1) POA allylphenyl ether (4.1 parts by mass), POE-POP glycol (1 part by mass), POE sorbitanlaurate (0.8 parts by mass), glycerin (2.6 parts by mass), dimethylformamide (65.9 parts by mass), N-methylpyrolidone (5.1 parts by mass), cyclohexanone (15.4 parts by mass), and aromatic hydrocarbon (5.1 parts by mass) were mixed and dissolved to prepare an emulsion. The compound according to the present invention (4 mg) was dissolved in the emulsion (100 μL) to prepare a test emulsion. The term “POA” means “polyoxyalkylene”, the term “POE” means “polyoxyethylene”, and the term “POP” means “polyoxypropylene”.
(§2) 150 cm^2 pots were filled with soil, and then seeds of Avena sativa, Matricaria chamomilla, Setaria faberi, Digitaria ciliaris, Abutilon theophrasti and Amaranthus retroflexus were sown on the surface layer of each of the pots, respectively, followed by lightly covering with soil. Then, the seeds were grown in a greenhouse. When each plant was grown to obtain a grass height of 2 cm to 4 cm, the above-mentioned test emulsion diluted to obtain a predetermined active ingredient amount was sprayed onto the leaves and stems at a spray volume of 250 L per hectare using a small sprayer.
(§3) Three weeks after, the fresh grass mass at an aerial part on an untreated area or a treated area was measured per weed, and the herbicidal ratio was calculated by the following calculation formula.
(§4) Herbicidal ratio (%)=(the fresh grass mass at an aerial part on untreated area−the fresh grass mass at an aerial part on treated area)/(the fresh grass mass at an aerial part on untreated area)×100

[2] = tested on: Digitaria ciliaris; experiment: as above; assay type: in vivo; details: 250 g per hectare, three weeks after, fresh grass mass of aerial part vs untreated
Method: as §1, §2, §3, §4

[3] = tested on: Amaranthus retroflexus; experiment: as above; assay type: in vivo; details: 250 g per hectare, three weeks after, fresh grass mass of aerial part vs untreated
Method: as §1, §2, §3, §4

[4] = tested on: Setaria faberi; experiment: as above; assay type: in vivo; details: 250 g per hectare, three weeks after, fresh grass mass of aerial part vs untreated
Method: as §1, §2, §3, §4

[5] = tested on: Avena sativa; experiment: as above; assay type: in vivo; details: 250 g per hectare, three weeks after, fresh grass mass of aerial part vs untreated
Method: as §1, §2, §3, §4

[6] = tested on: Digitaria ciliaris; experiment: Soil treatment test (Test Example 2); assay type: in vivo; details: four weeks after
Method: (§5) A test emulsion was prepared by the same method as that in Test example 1.
(§6) 70 cm^2 pots were filled with soil, and then seeds of Digitaria ciliaris and Amaranthus retroflexus were sown on the surface layer of each of the pots, respectively, followed by lightly covering with soil. On the next day, the above-mentioned test emulsion was diluted to obtain a predetermined active ingredient amount, and then was sprayed onto the soil surface at a spray volume of 2860 L per hectare using a small sprayer.
(§7) Four weeks after, the fresh grass mass at an aerial part on an untreated area or a treated area was measured per weed, and the herbicidal ratio was calculated by the following calculation formula.
as §4
(§8) The compounds A-1 and A-4 were sprayed at a spray amount of 63 g or 31 g per hectare, respectively.
(§9) In addition, the following compounds (A) to (C) disclosed in Patent Document 1 were sprayed in a similar manner.

[7] = tested on: Amaranthus retroflexus; experiment: Soil treatment test (Test Example 2); assay type: in vivo; details: four weeks after
Method: as §5, §6, §7, §4, §8, §9

Structure (SMILES): COC(=O)OCOc1c(-c2ccc(C(F)(F)F)cc2S(C)(=O)=O)cnn(C)c1=O [Compound A-3]
- Herbicidal ratio against Matricaria chamomilla [1]: 100%
- Herbicidal ratio against Digitaria ciliaris [2]: 100%
- Herbicidal ratio against Amaranthus retroflexus [3]: 100%
- Herbicidal ratio against Setaria faberi [4]: 100%
- Herbicidal ratio against Avena sativa [5]: 100%

Structure (SMILES): CC(=O)Oc1c(-c2ccc(C(F)(F)F)cc2S(C)(=O)=O)cnn(C)c1=O [(B)]
- Herbicidal ratio Digitaria ciliaris ([6]; spray amount 31 g/ha): 0%
- Herbicidal ratio Digitaria ciliaris ([6]; spray amount 63 g/ha): 30%
- Herbicidal ratio Amaranthus retroflexus ([7]; spray amount 31 g/ha): 0%
- Herbicidal ratio Amaranthus retroflexus ([7]; spray amount 63 g/ha): 0%

Structure (SMILES): COCCOc1c(S(C)(=O)=O)ccc(-c2cnn(C)c(=O)c2OC(C)OC(=O)OC)c1Cl (stereo not shown) [Compound A-8]
- Herbicidal ratio against Matricaria chamomilla [1]: 100%
- Herbicidal ratio against Digitaria ciliaris [2]: 100%
- Herbicidal ratio against Amaranthus retroflexus [3]: 100%

Structure (SMILES): Cc1ccc(S(=O)(=O)Oc2c(-c3ccc(C(F)(F)F)cc3S(C)(=O)=O)cnn(C)c2=O)cc1 [(C)]
- Herbicidal ratio Digitaria ciliaris ([6]; spray amount 31 g/ha): 40%
- Herbicidal ratio Digitaria ciliaris ([6]; spray amount 63 g/ha): 70%
- Herbicidal ratio Amaranthus retroflexus ([7]; spray amount 31 g/ha): 0%
- Herbicidal ratio Amaranthus retroflexus ([7]; spray amount 63 g/ha): 0%

Structure (SMILES): CC(C)C(=O)OCOc1c(-c2ccc(C(F)(F)F)cc2S(C)(=O)=O)cnn(C)c1=O [Compound A-5]
- Herbicidal ratio against Matricaria chamomilla [1]: 100%
- Herbicidal ratio against Digitaria ciliaris [2]: 100%
- Herbicidal ratio against Amaranthus retroflexus [3]: 100%
- Herbicidal ratio against Setaria faberi [4]: 100%
- Herbicidal ratio against Avena sativa [5]: 100%

Structure (SMILES): COC(=O)OC(C)Oc1c(-c2ccc(C(F)(F)F)cc2S(C)(=O)=O)cnn(C)c1=O (stereo not shown) [Compound A-4, methyl (1-((2-methyl-5-(2-(methylsulfonyl)-4-(trifluoromethyl)phenyl)-3-oxo-2,3-dihydropyridazin-4-yl)oxy)ethyl) carbonate]
- melting point: 173 to 176 °C
- Herbicidal ratio Digitaria ciliaris ([6]; spray amount 63 g/ha): 100%
- Herbicidal ratio Amaranthus retroflexus ([7]; spray amount 63 g/ha): 100%
- Herbicidal ratio against Matricaria chamomilla [1]: 100%
- Herbicidal ratio against Digitaria ciliaris [2]: 100%
- Herbicidal ratio against Amaranthus retroflexus [3]: 100%
- Herbicidal ratio against Avena sativa [5]: 100%

Structure (SMILES): CC(OC(=O)C(C)C)Oc1c(-c2ccc(C(F)(F)F)cc2S(C)(=O)=O)cnn(C)c1=O (stereo not shown) [Compound A-1]
- Herbicidal ratio Digitaria ciliaris ([6]; spray amount 31 g/ha): 100%
- Herbicidal ratio Digitaria ciliaris ([6]; spray amount 63 g/ha): 100%
- Herbicidal ratio Amaranthus retroflexus ([7]; spray amount 31 g/ha): 100%
- Herbicidal ratio Amaranthus retroflexus ([7]; spray amount 63 g/ha): 100%
- Herbicidal ratio against Matricaria chamomilla [1]: 100%
- Herbicidal ratio against Digitaria ciliaris [2]: 100%
- Herbicidal ratio against Amaranthus retroflexus [3]: 100%
- Herbicidal ratio against Setaria faberi [4]: 100%
- Herbicidal ratio against Avena sativa [5]: 100%

Structure (SMILES): COC(=O)OC(C)Oc1c(-c2ccc(S(C)(=O)=O)cc2Cl)cnn(C)c1=O (stereo not shown) [Compound A-2]
- Herbicidal ratio against Matricaria chamomilla [1]: 100%
- Herbicidal ratio against Avena sativa [5]: 100%

Structure (SMILES): Cn1ncc(-c2ccc(C(F)(F)F)cc2S(C)(=O)=O)c(O)c1=O [(A)]
- Herbicidal ratio Digitaria ciliaris ([6]; spray amount 31 g/ha): 0%
- Herbicidal ratio Digitaria ciliaris ([6]; spray amount 63 g/ha): 0%
- Herbicidal ratio Amaranthus retroflexus ([7]; spray amount 31 g/ha): 0%
- Herbicidal ratio Amaranthus retroflexus ([7]; spray amount 63 g/ha): 0%

Structure (SMILES): COC(=O)OC(C)Oc1c(-c2ccc(C(F)(F)F)c(NC(=O)C3CC3)c2C)cnn(C)c1=O (stereo not shown) [Compound A-9]
- Herbicidal ratio against Matricaria chamomilla [1]: 100%
- Herbicidal ratio against Amaranthus retroflexus [3]: 100%
- Herbicidal ratio against Setaria faberi [4]: 100%
- Herbicidal ratio against Avena sativa [5]: 100%

Structure (SMILES): COC(=O)OC(C)Oc1c(-c2ccc(S(C)(=O)=O)c(C3=NOCC3)c2Cl)cnn(C)c1=O (stereo not shown) [Compound A-7]
- Herbicidal ratio against Matricaria chamomilla [1]: 100%
- Herbicidal ratio against Digitaria ciliaris [2]: 100%
- Herbicidal ratio against Amaranthus retroflexus [3]: 100%
- Herbicidal ratio against Setaria faberi [4]: 100%
- Herbicidal ratio against Avena sativa [5]: 100%
